Values quoted from earlier work in patent US20060153842A1, “Immunosuppressive combination and its use in the treatment or prophylaxis or insulin-producing cell graft rejection” (priority 2001, published 2006).

Tested on: islet allograft in male rats
Conditions: male rats hyperglycemic with streptozotocin; pre-administration the day before and the day of grafting

## CCCCCCCCc1ccc(CCC(N)(CO)CO)cc1 [FTY720, 2-amino-2-[2-(4-octylphenyl)ethyl]propane-1,3-diol]
  prolonged islet allograft survival: up to 20 days
